Laboratory results reported in publication PMC12186257, “Serendipitous and Systematic Chemoproteomic Discovery of MBLAC2, HINT1, and NME1‑4 Inhibitors from Histone Deacetylase-Targeting Pharmacophores” (ACS Chemical Biology, 2025).

Key:
[1] = system: recombinant NME1–4; assay: nucleoside diphosphate kinase activity assay (ATP production from ADP and GTP, Kinase-GLO); format: biochemical; details: in vitro
Procedure: To evaluate whether KV-50 binding affects NME activity, we performed enzyme activity assays using recombinant NME1–4. The assay measured NME-catalyzed production of ATP from ADP (150 μM) and GTP (150 μM).
Nucleotide diphosphate kinase activity assays. The phosphotransfer activity of the NDPKs (NME1-4) was measured in a reaction mixture containing buffer A (20 mM Tris-HCl pH 8.0, 150 mM NaCl, and 1 mM MgCl2). All the samples were pipetted in replicates on a 384 well plate. One volume of the respective NDPK protein solution (NME1-4) was added from stock proteins (diluted in buffer a to a concentration of 300 pM) to the wells in four replicates. To these wells, one volume of the inhibitors (Six dilutions were prepared, starting with a 30 µM stock solution and then performing three-fold serial dilutions) was added and incubated at room temperature for 30 minutes. Then, one volume of the substrate mixture (300 μM GTP and 30 μM ADP) was added to the protein-inhibitor mixture-containing wells and incubated at room temperature for 30 minutes. Finally, three volumes of the Kinase-GLO reagent (Promega V6711) containing an ATP-dependent firefly luciferase were added to all the wells and five minutes later, the luminescence was measured using a plate reader. Eight different concentrations of ATP (0 - 10 μM) were used as standards for a calibration curve to calculate the amount of ATP produced by the different NDPKs.

[2] = system: compound-binding proteins such as HDACs, MBLAC2, ISOC1/2, ALDH2, and GATD3A; assay: chemoproteomic competition assay, proteome-wide target binding profile; set-up: species or system human; details: dose-dependent competition
Procedure: MBLAC2 is a metalloenzyme predicted to harbor one or two Zn^2+ ions in its active site. […] In this assay, compounds of interest are incubated at increasing concentrations with a mixture of lysates of MV4–11 and SW620 cells. The compound-treated lysates are then mixed with bead-immobilized hydroxamic acid-containing compounds iA, iC, and iQ (immobilized Quisinostat), which pull down compound-binding proteins such as HDACs, MBLAC2, ISOC1/2, ALDH2, and GATD3A (Figure a) that can be identified and quantified by mass spectrometry (MS). Proteins targeted by the library compounds in a preincubation step are prevented from being pulled down by the immobilized probes, leading to a dose-dependent reduction in MS signal. Initially, 12 metal-chelating compounds were profiled at two concentrations (10 μM and 100 μM) (Figure S3).
Chemoproteomic competition assays
Sample preparation. For the MBLAC2 and HDAC inhibitor competition assay, the generation of affinity matrices, lysate generation, pulldown assay, and sample preparation were performed as described in detail in REF1. For the kinobeads assay, the generation of affinity matrices, lysate generation, pulldown assay, and sample preparation were performed as described in detail in REF2.
LC-MS/MS. The different sample types were measured with different LC-MS/MS settings. MBLAC2 2-dose competition assays were measured with the Lumos1 setup, MBLAC2 9-dose competition assays were measured with the Lumos2 setup, and kinobeads assays were measured with the Eclipse setup.
Peptides were analyzed via LC–MS/MS on a Dionex Ultimate3000 nano HPLC coupled to either one of two Orbitrap Fusion Lumos mass spectrometers, or to an Orbitrap Eclipse mass spectrometer, operated via the Thermo Scientific Xcalibur software.
In the all setups, peptides were loaded on a trap column (100 μm × 2 cm, packed in-house with Reprosil-Gold C18 ODS-3 5 μm resin, Dr. Maisch, Ammerbuch) and washed with 5 μL/min solvent A (0.1% formic acid in HPLC grade water) for 10 min. Peptides were then separated on an analytical column (75 μm × 40 cm, packed in-house with Reprosil-Gold C18 3μm resin, Dr. Maisch, Ammerbuch) using a 50 min gradient ranging from 4 to 32% solvent B (0.1% formic acid, 5% DMSO in acetonitrile) in solvent A (0.1% formic acid, 5% DMSO in HPLC grade water) at a flow rate of 300 nL/min.
The mass spectrometers were operated in data-dependent mode, automatically switching between MS1 and MS2 spectra. MS1 spectra were acquired over a mass-to-charge (m/z) range of 360–1300 m/z at a resolution of 60,000 (at m/z 200) in the Orbitrap using a maximum injection time of 50 ms and an automatic gain control (AGC) target value of 4e5.
In Lumos settings, up to 12 peptide precursors were isolated in (isolation width of 1.2 Th for Lumos1 and 1.7 for Lumos2, maximum injection time of 75 ms, AGC value of 1e5 for Lumos1 and 2e5 for Lumos2), fragmented by HCD using 30% normalized collision energy (NCE) and analyzed in the Orbitrap at a resolution of 15,000 (Lumos2) or 30,000 (Lumos1). The dynamic exclusion duration of fragmented precursor ions was set to 20 s (Lumos1) or 30 s (Lumos2). In Eclipse measurements, a cycle time of 2 s was chosen. Peptides were isolated in the quadrupole with an isolation offset of 1.2 (isolation width of 1.2 Th, maximum injection time of 54 ms, AGC target of 200%) and fragmented by […]

[3] = system: Toxoplasma gondii; set-up: method as in PMID 33360687, PMID 35483428, PMID 38431113, PMID 29414107; details: in human host cells; cited from earlier work

Row | targets / off-targets bound [2] | Compound | effect on NME enzyme activity [1] | inhibition of proliferation of protozoans [3]
1 | bound to HINT1 and NME4 | O=C(NO)c1ccc(-c2nc3ccccc3n3cccc23)cc1 [KV-24] | only modestly reduced NME enzyme activity | potently inhibit the proliferation
2 | bound to HINT1 and NME4 | O=C(NO)c1ccc(-c2nc3ccccc3c3ccccc23)cc1 [KV-30] | only modestly reduced NME enzyme activity | potently inhibit the proliferation
